Tested on: male adult Sprague Dawley rats
Experiment: Sleep-wake organization in rats, polysomnographic recording (EEG, EOG, EMG, body movement) for 16 hours after acute i.p. administration
Format: in vivo, rat
Conditions: rats; for Duration (min) Active wake / Duration (min) Deep sleep / Duration (min) Light sleep / Duration (min) Passive wake / Duration (min) REM sleep / Duration (min) intermediate stage / ISWS/TST (%) / Latency (min) ISWS / Latency (min) REM sleep / Latency (min) dSWS / REMS/TST (%) / Shifts (number) Shift from ISWS to AW / Shifts (number) Shift from ISWS to PW / Shifts (number) Shift from REMS to AW / Shifts (number) Shift from REMS to PW / Shifts (number) Shift from dSWS to AW / Shifts (number) Shift from dSWS to PW / Total sleep time TST / dSWS/TST (%): 16 hours recording period; for change in number of active wakefulness epochs / change in number of deep sleep epochs / change in number of light sleep epochs / change in duration of active wakefulness / change in time spent in deep sleep / change in time spent in light sleep / change in number of REM sleep epochs / change in duration of REM sleep: 10 mg/kg
[1] = highest dose tested, 16 hours recording

Structure (SMILES): COC(=O)[C@H]1[C@@H](OC(=O)c2ccccc2)C[C@@H]2CC[C@H]1N2C [Cocaine, cocaine]
- Duration (min) Active wake (1 mg/kg i.p.): 331.5 min
- Duration (min) Deep sleep (1 mg/kg i.p.): 162.9 min
- Duration (min) Light sleep (1 mg/kg i.p.): 293.2 min
- Duration (min) Passive wake (1 mg/kg i.p.): 69.8 min
- Duration (min) REM sleep (1 mg/kg i.p.): 84.2 min
- Duration (min) intermediate stage (1 mg/kg i.p.): 6.7 min
- ISWS/TST (%) (1 mg/kg i.p.): 51.8 ± 4.5%
- Latency (min) ISWS (1 mg/kg i.p.): 69.9 ± 51.2 min
- Latency (min) REM sleep (1 mg/kg i.p.): 74.3 ± 12.1 min
- Latency (min) dSWS (1 mg/kg i.p.): 79.3 ± 26.7 min
- REMS/TST (%) (1 mg/kg i.p.): 15.4 ± 0.9%
- Shifts (number) Shift from ISWS to AW (1 mg/kg i.p.): 184.1 number
- Shifts (number) Shift from ISWS to PW (1 mg/kg i.p.): 128.6 number
- Shifts (number) Shift from REMS to AW (1 mg/kg i.p.): 74.5 number
- Shifts (number) Shift from REMS to PW (1 mg/kg i.p.): 17.0 number
- Shifts (number) Shift from dSWS to AW (1 mg/kg i.p.): 10.1 number
- Shifts (number) Shift from dSWS to PW (1 mg/kg i.p.): 66.6 number
- Total sleep time TST (1 mg/kg i.p.): 547.0 ± 51.5 min
- dSWS/TST (%) (1 mg/kg i.p.): 31.2 ± 4.8%
- Duration (min) Active wake (3 mg/kg i.p.): 324.8 min
- Duration (min) Deep sleep (3 mg/kg i.p.): 172.6 min
- Duration (min) Light sleep (3 mg/kg i.p.): 303.2 min
- Duration (min) Passive wake (3 mg/kg i.p.): 66.7 min
- Duration (min) REM sleep (3 mg/kg i.p.): 76.7 min
- Duration (min) intermediate stage (3 mg/kg i.p.): 5.7 min
- ISWS/TST (%) (3 mg/kg i.p.): 53.8 ± 6.3%
- Latency (min) ISWS (3 mg/kg i.p.): 41.5 ± 9.2 min
- Latency (min) REM sleep (3 mg/kg i.p.): 112.0 ± 12.2 min
- Latency (min) dSWS (3 mg/kg i.p.): 68.6 ± 7.6 min
- REMS/TST (%) (3 mg/kg i.p.): 13.8 ± 1.1%
- Shifts (number) Shift from ISWS to AW (3 mg/kg i.p.): 218.5 number
- Shifts (number) Shift from ISWS to PW (3 mg/kg i.p.): 142.2 number
- Shifts (number) Shift from REMS to AW (3 mg/kg i.p.): 56.0 number
- Shifts (number) Shift from REMS to PW (3 mg/kg i.p.): 10.7 number
- Shifts (number) Shift from dSWS to AW (3 mg/kg i.p.): 10.2 number
- Shifts (number) Shift from dSWS to PW (3 mg/kg i.p.): 64.5 number
- Total sleep time TST (3 mg/kg i.p.): 558.2 ± 21.2 min
- dSWS/TST (%) (3 mg/kg i.p.): 31.4 ± 6.1%
- Duration (min) Active wake (10 mg/kg i.p.): 347.3 min
- Duration (min) Deep sleep (10 mg/kg i.p.): 171.9 min
- Duration (min) Light sleep (10 mg/kg i.p.): 294.6 min
- Duration (min) Passive wake (10 mg/kg i.p.): 55.0 min
- Duration (min) REM sleep (10 mg/kg i.p.): 74.7 min
- Duration (min) intermediate stage (10 mg/kg i.p.): 6.3 min
- ISWS/TST (%) (10 mg/kg i.p.): 53.8 ± 4.0%
- Latency (min) ISWS (10 mg/kg i.p.): 101.8 ± 6.9 min
- Latency (min) REM sleep (10 mg/kg i.p.): 192.1 ± 18.5 min
- Latency (min) dSWS (10 mg/kg i.p.): 138.8 ± 8.7 min
- REMS/TST (%) (10 mg/kg i.p.): 13.8 ± 1.5%
- Shifts (number) Shift from ISWS to AW (10 mg/kg i.p.): 201.2 number
- Shifts (number) Shift from ISWS to PW (10 mg/kg i.p.): 132.6 number
- Shifts (number) Shift from REMS to AW (10 mg/kg i.p.): 52.3 number
- Shifts (number) Shift from REMS to PW (10 mg/kg i.p.): 9.2 number
- Shifts (number) Shift from dSWS to AW (10 mg/kg i.p.): 10.4 number
- Shifts (number) Shift from dSWS to PW (10 mg/kg i.p.): 37.6 number
- Total sleep time TST (10 mg/kg i.p.): 547.6 ± 18.2 min
- dSWS/TST (%) (10 mg/kg i.p.): 31.3 ± 4.2%
- change in number of active wakefulness epochs (0.5 h): +111%
- change in number of deep sleep epochs (0.5 h): −100%
- change in number of light sleep epochs (0.5 h): −100%
- change in duration of active wakefulness (0.5 h after treatment): +111%
- change in time spent in deep sleep (0.5 h after treatment): 90%
- change in time spent in light sleep (0.5 h after treatment): −100%
- change in number of REM sleep epochs (0.5 hr): −100%
- change in duration of REM sleep (0.5 hr after administration): −100%
- change in number of active wakefulness epochs (1 h): +500%
- change in duration of active wakefulness (1 h after treatment): +500%
- change in time spent in deep sleep (1 h after treatment): −100%
- change in time spent in light sleep (1 h after treatment): −99%
- change in number of REM sleep epochs (1 hr): −100%
- change in number of deep sleep epochs (1 hr): −100%
- change in number of light sleep epochs (1 hr): −99%
- change in duration of REM sleep (1 hr after administration): −100%
- change in number of deep sleep epochs (1.5 h): −100%
- change in number of light sleep epochs (1.5 h): −87%
- change in number of REM sleep epochs (1.5 hr): −100%
- change in number of active wakefulness epochs (1.5 hr): +312%
- change in duration of REM sleep (1.5 hr after administration): −100%
- change in duration of active wakefulness (1.5 hr after treatment): +312%
- change in time spent in deep sleep (1.5 hr after treatment): −99%
- change in time spent in light sleep (1.5 hr after treatment): −87%
- change in number of active wakefulness epochs (2 h): +119%
- change in duration of active wakefulness (2 h after treatment): +120%
- change in time spent in deep sleep (2 h after treatment): −70%
- change in time spent in light sleep (2 h after treatment): −25%
- change in number of REM sleep epochs (2 hr): −87%
- change in number of deep sleep epochs (2 hr): −38%
- change in number of light sleep epochs (2 hr): −22%
- change in duration of REM sleep (2 hr after administration): −87%
- change in number of REM sleep epochs (2.5 hr): −47%
- change in number of active wakefulness epochs (2.5 hr): +166%
- change in duration of REM sleep (2.5 hr after administration): −47%
- change in duration of active wakefulness (2.5 hr after treatment): +166%
- change in number of REM sleep epochs (3 hr): −78%
- change in number of active wakefulness epochs (3 hr): +77%
- change in duration of REM sleep (3 hr after administration): −78%
- change in duration of active wakefulness (3 hr after treatment): +77%
- decrease in total time spent in REM sleep [1]: −18%
- increase in total duration of active wakefulness [1]: +14%

Source: patent publication US20190367448A1, “TREATMENT OF SLEEP-WAKE DISORDERS” (SK Biopharmaceuticals Co., Ltd., priority 2005, published 2019)
